# Earlier results in patent US20080095838A1, “Solid pharmaceutical composition containing a lipophilic active principle and preparation method thereof” (CLL Pharma, priority 2002, published 2008).
# Counter-ions that a name gives are not always drawn.
# Key:
# [1] = in water
# [2] = in vivo
elimination half-life [2],Structure (SMILES),solubility [1] [µg/mL]
,CC(C)(C)NC(=O)[C@@H]1C[C@@H]2CCCC[C@@H]2CN1C[C@@H](O)[C@H](Cc1ccccc1)NC(=O)[C@H](CC(N)=O)NC(=O)c1ccc2ccccc2n1 [saquinavir mesylate],2220
approximately 20 hours,"CC(C)OC(=O)C(C)(C)Oc1ccc(C(=O)c2ccc(Cl)cc2)cc1 [fenofibrate, 2-(4-(4-chlorobenzoyl)phenoxy)-2-methylpropanoic acid 1-methylethyl ester]",
